For twelve compounds, TGI and GI50 results are on record in PubChem BioAssay (NCI).

Among the test systems are HOP-92 NSCLC; K-562 leukemia; IGROV1 ovarian; HCC-2998 colon; SK-MEL-28 melanoma; OVCAR-8 ovarian; TK-10 renal; SR leukemia; HS 578T breast; MDA-MB-435.
Common to all, as to test: DTP human tumour cell line panel, 48 h

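The compound was tested at five concentrations on cells cultured in 96-well plates, with a 48-hour exposure period. GI50: concentration for 50% inhibition of growth. TGI: total growth inhibition.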 Bounds are passed on as bounds.

`NC(=O)NN=C(CS)CS`: the TGI in the test on HOP-92 NSCLC was 38.6 µM; with K-562 leukemia, above 100 µM; in the test on IGROV1 ovarian it was above 100 µM; in the test with HCC-2998 colon, above 77.5 µM; with SK-MEL-28 melanoma it was 80.8 µM; in the test with OVCAR-8 ovarian, 77.3 µM.
For the compound `CN(C)CCCNc1ccc2ncn3c4ccccc4c(=O)c1c23`, the TGI in the test on TK-10 renal is 69.7 µM; with HOP-92 NSCLC, 59.5 µM; in the test on K-562 leukemia, 24.1 µM; in the test with IGROV1 ovarian, 33 µM; in the test on SR leukemia it was 17.7 µM; with SK-MEL-28 melanoma it was above 100 µM. In addition, the TGI in the test with OVCAR-8 ovarian is 20 µM.
Consider `O=c1ccc2cc(O)c(O)cc2o1`, for which the total growth inhibition concentration (TGI) with HS 578T breast, in the test with TK-10 renal, in the test on HOP-92 NSCLC, in the test on K-562 leukemia, with IGROV1 ovarian and in the test on SR leukemia was above 100 µM throughout. Besides, the TGI in the test on HCC-2998 colon, with SK-MEL-28 melanoma, with MDA-MB-435 and in the test on OVCAR-8 ovarian was above 100 µM in each case.
In the case of `Cc1ccc(S(=O)(=O)NCCSCCNS(=O)(=O)c2ccc(C)cc2)cc1`, the TGI with HS 578T breast, with TK-10 renal, in the test on HOP-92 NSCLC, in the test on K-562 leukemia, in the test on SR leukemia and in the test with HCC-2998 colon was above 100 µM in each case. Moreover, the TGI in the test on SK-MEL-28 melanoma, with MDA-MB-435 and in the test with OVCAR-8 ovarian was above 100 µM throughout.
As for `COc1ccc([C@@H]2ON(C)[C@H]3CN(C)C(=O)[C@@H]23)cc1`, the TGI in the test on HS 578T breast, in the test with TK-10 renal, in the test on HOP-92 NSCLC, in the test with K-562 leukemia, in the test with IGROV1 ovarian and in the test on SR leukemia was above 100 µM throughout. The TGI with HCC-2998 colon, in the test on SK-MEL-28 melanoma and in the test on OVCAR-8 ovarian was above 100 µM each time.
With `C/C=C/[P+](c1ccccc1)(c1ccccc1)c1ccccc1`, the TGI was 3.17 µM in the test with HS 578T breast; 20.3 µM with TK-10 renal; 6.81 µM with HOP-92 NSCLC; 28.2 µM in the test with K-562 leukemia; 18.1 µM with IGROV1 ovarian; 2.58 µM in the test with SR leukemia. The TGI in the test on HCC-2998 colon came out at 3.82 µM; in the test with SK-MEL-28 melanoma, 17.5 µM; with MDA-MB-435, 5.97 µM; in the test with OVCAR-8 ovarian, 17.3 µM.
As for `O=C1c2c(c3c4ccccc4[nH]c3c3ccc4ccccc4c23)C(=O)N1CCN1CCCCC1`, the GI50 is 2.04 µM with HS 578T breast; 3.38 µM in the test on TK-10 renal; 2.67 µM with HOP-92 NSCLC; 1.33 µM in the test on K-562 leukemia; 1.25 µM with IGROV1 ovarian; 1.95 µM in the test with HCC-2998 colon. Further, the GI50 was 1.65 µM with SK-MEL-28 melanoma, 1.72 µM in the test on MDA-MB-435 and 1.27 µM in the test on OVCAR-8 ovarian. Besides, the TGI in the test with HS 578T breast is 5.71 µM; with TK-10 renal, above 100 µM; in the test with HOP-92 NSCLC, 38.8 µM; with K-562 leukemia, 6.34 µM; with IGROV1 ovarian, 4.29 µM; in the test with HCC-2998 colon, 15.3 µM. The TGI came to 3.16 µM in the test with SK-MEL-28 melanoma, 3.26 µM with MDA-MB-435 and 4.48 µM with OVCAR-8 ovarian.
In the case of `Cc1ccc(Oc2ccc(C)cc2[N+](=O)[O-])cc1`, the TGI with TK-10 renal, in the test with HOP-92 NSCLC, in the test on K-562 leukemia, with IGROV1 ovarian, in the test on SR leukemia and in the test with HCC-2998 colon was above 100 µM each time. In addition, the TGI with SK-MEL-28 melanoma and with OVCAR-8 ovarian was above 100 µM throughout.
For the compound `COc1ccc(-c2c3c(nc4nc(SCCc5ccccc5)nc(N)c24)CCCC3)cc1OC`, the TGI in the test on HS 578T breast, in the test on TK-10 renal, in the test on K-562 leukemia, in the test with IGROV1 ovarian, in the test with SR leukemia and in the test with SK-MEL-28 melanoma was above 100 µM each time. Further, the TGI in the test with MDA-MB-435 and in the test with OVCAR-8 ovarian was above 100 µM each time.
Turning to `CCCCCCCSc1nc2c(C(=O)OCC)ncn2c2ccccc12`, the TGI in the test on TK-10 renal, in the test with HOP-92 NSCLC, in the test with K-562 leukemia, with IGROV1 ovarian, in the test on SR leukemia and in the test with HCC-2998 colon was above 100 µM throughout. The TGI with SK-MEL-28 melanoma and in the test with OVCAR-8 ovarian was above 100 µM each time.
`COc1ccc(N2C(=O)C3c4[nH]c5c(C)cccc5c4C4CCC(C(C)(C)C)CC4C3C2=O)cc1` (centres undefined): the TGI was above 10 µM in the test with HS 578T breast; above 10 µM in the test on TK-10 renal; above 10 µM in the test on K-562 leukemia; above 10 µM in the test on IGROV1 ovarian; above 10 µM in the test with SR leukemia; 7.61 µM in the test on HCC-2998 colon. In addition, the TGI in the test with SK-MEL-28 melanoma, in the test with MDA-MB-435 and in the test with OVCAR-8 ovarian was above 10 µM in each case.
Consider `CC(=O)C(O)N1C(=O)C=CC1=O` (centres undefined), for which the GI50 in the test with HS 578T breast was 15800 µM; with MDA-MB-435 it was 10700 µM.
